Data: the NIST ThermoML archive (doi:10.1021/je200637v)
± gives the expanded uncertainty stated by the source.

Test: activity coefficient (dimensionless); of the first substance listed, at infinite dilution; xn = mol fraction of the nth substance listed
Conditions: Liquid, Chromatography, x1 = 0

SMILES | activity coefficient (322.85 K) | activity coefficient (332.65 K) | activity coefficient (343.15 K)
CCC(C)CC [3-methylpentane] + CCCCCCCC[N+](CCCCCCCC)(CCCCCCCC)CCCCCCCC.O=S(=O)([N-]S(=O)(=O)C(F)(F)F)C(F)(F)F | 1.22 ± 0.04 | 1.22 ± 0.04 | 1.21 ± 0.04
CCC(C)CC [3-methylpentane] + CCCC[N+](C)(CCCC)CCCC.O=S(=O)([N-]S(=O)(=O)C(F)(F)F)C(F)(F)F | 6.1 ± 0.28 | 6.17 ± 0.28 | 5.86 ± 0.27
CC#N [acetonitrile] + CCCCCCCCCC[N+](C)(C)C.O=S(=O)([N-]S(=O)(=O)C(F)(F)F)C(F)(F)F | 0.44 ± 0.03 | 0.44 ± 0.03 | 0.42 ± 0.03
CC#N [acetonitrile] + CCCCCCCC[N+](C)(C)C.O=S(=O)([N-]S(=O)(=O)C(F)(F)F)C(F)(F)F | 0.48 ± 0.03 | 0.46 ± 0.03 | 0.44 ± 0.03
CC#N [acetonitrile] + CCCCCCCC[N+](CCCCCCCC)(CCCCCCCC)CCCCCCCC.O=S(=O)([N-]S(=O)(=O)C(F)(F)F)C(F)(F)F | 0.5 ± 0.03 | 0.49 ± 0.03 | 0.49 ± 0.03
CC#N [acetonitrile] + CCCC[N+](C)(CCCC)CCCC.O=S(=O)([N-]S(=O)(=O)C(F)(F)F)C(F)(F)F | 0.49 ± 0.03 | 0.5 ± 0.03 | 0.48 ± 0.03
c1ccccc1 [benzene] + CCCCCCCCCC[N+](C)(C)C.O=S(=O)([N-]S(=O)(=O)C(F)(F)F)C(F)(F)F | 0.71 ± 0.03 | 0.73 ± 0.03 | 0.72 ± 0.03
c1ccccc1 [benzene] + CCCCCCCC[N+](C)(C)C.O=S(=O)([N-]S(=O)(=O)C(F)(F)F)C(F)(F)F | 0.73 ± 0.03 | 0.74 ± 0.03 | 0.73 ± 0.03
c1ccccc1 [benzene] + CCCCCCCC[N+](CCCCCCCC)(CCCCCCCC)CCCCCCCC.O=S(=O)([N-]S(=O)(=O)C(F)(F)F)C(F)(F)F | 0.4 ± 0.03 | 0.41 ± 0.03 | 0.41 ± 0.03
c1ccccc1 [benzene] + CCCC[N+](C)(CCCC)CCCC.O=S(=O)([N-]S(=O)(=O)C(F)(F)F)C(F)(F)F | 0.9 ± 0.03 | 0.93 ± 0.03 | 0.92 ± 0.03
CCCCO [butan-1-ol] + CCCCCCCCCC[N+](C)(C)C.O=S(=O)([N-]S(=O)(=O)C(F)(F)F)C(F)(F)F | 1.7 ± 0.07 | 1.55 ± 0.06 | 1.38 ± 0.05
CCCCO [butan-1-ol] + CCCCCCCC[N+](C)(C)C.O=S(=O)([N-]S(=O)(=O)C(F)(F)F)C(F)(F)F | 2.01 ± 0.09 | 1.8 ± 0.08 | 1.59 ± 0.06
CCCCO [butan-1-ol] + CCCCCCCC[N+](CCCCCCCC)(CCCCCCCC)CCCCCCCC.O=S(=O)([N-]S(=O)(=O)C(F)(F)F)C(F)(F)F | 3.08 ± 0.14 | 1.12 ± 0.03 | 1.04 ± 0.03
CCCCO [butan-1-ol] + CCCC[N+](C)(CCCC)CCCC.O=S(=O)([N-]S(=O)(=O)C(F)(F)F)C(F)(F)F | 2.1 ± 0.1 | 1.89 ± 0.08 | 1.73 ± 0.07
CCCC=O [butanal] + CCCCCCCCCC[N+](C)(C)C.O=S(=O)([N-]S(=O)(=O)C(F)(F)F)C(F)(F)F | 0.47 ± 0.03 | 0.53 ± 0.03 | 0.51 ± 0.03
CCCC=O [butanal] + CCCCCCCC[N+](CCCCCCCC)(CCCCCCCC)CCCCCCCC.O=S(=O)([N-]S(=O)(=O)C(F)(F)F)C(F)(F)F |  |  | 0.31 ± 0.04
CCC(C)=O [butanone] + CCCCCCCCCC[N+](C)(C)C.O=S(=O)([N-]S(=O)(=O)C(F)(F)F)C(F)(F)F | 0.33 ± 0.04 | 0.32 ± 0.04 | 0.29 ± 0.04
CCC(C)=O [butanone] + CCCCCCCC[N+](C)(C)C.O=S(=O)([N-]S(=O)(=O)C(F)(F)F)C(F)(F)F | 0.41 ± 0.03 | 0.38 ± 0.03 | 0.34 ± 0.04
CCC(C)=O [butanone] + CCCCCCCC[N+](CCCCCCCC)(CCCCCCCC)CCCCCCCC.O=S(=O)([N-]S(=O)(=O)C(F)(F)F)C(F)(F)F | 0.29 ± 0.04 | 0.28 ± 0.04 | 0.26 ± 0.04
CCC(C)=O [butanone] + CCCC[N+](C)(CCCC)CCCC.O=S(=O)([N-]S(=O)(=O)C(F)(F)F)C(F)(F)F | 0.4 ± 0.03 | 0.38 ± 0.03 | 0.35 ± 0.04
C1CCCCCC1 [cycloheptane] + CCCCCCCCCC[N+](C)(C)C.O=S(=O)([N-]S(=O)(=O)C(F)(F)F)C(F)(F)F | 7.7 ± 0.35 | 10.8 ± 0.49 | 14.6 ± 0.67
C1CCCCCC1 [cycloheptane] + CCCCCCCC[N+](C)(C)C.O=S(=O)([N-]S(=O)(=O)C(F)(F)F)C(F)(F)F | 10.8 ± 0.5 | 14.7 ± 0.68 | 19.4 ± 0.9
C1CCCCCC1 [cycloheptane] + CCCCCCCC[N+](CCCCCCCC)(CCCCCCCC)CCCCCCCC.O=S(=O)([N-]S(=O)(=O)C(F)(F)F)C(F)(F)F | 2.21 ± 0.1 | 3.16 ± 0.14 | 4.37 ± 0.2
